Converted amounts (≈) assume the structure as drawn.
How the values were obtained:
Assay type in all cases: functional
Escherichia coli [1] = assay: In vitro inhibitory activity against Escherichia coli ATCC 25922
Pseudomonas aeruginosa [2] = assay: In vitro inhibitory activity against Pseudomonas aeruginosa PAO-1
Staphylococcus aureus [3] = assay: In vitro inhibitory activity against Staphylococcus aureus ATCC 29213
Pseudomonas aeruginosa [4] = assay: In vitro inhibitory activity against Pseudomonas aeruginosa ATCC 27853
Pseudomonas aeruginosa [5] = assay: In vitro inhibitory activity against Pseudomonas aeruginosa ATCC 35151
Staphylococcus aureus [6] = assay: In vitro inhibitory activity against Staphylococcus aureus MRSA 33591
Enterococcus faecalis [7] = assay: In vitro inhibitory activity against Enterococcus faecalis ATCC 29212
Escherichia coli [8] = assay: In vitro inhibitory activity against Escherichia coli ATCC 25922; Value ranges from 0.25-1 ug/mL
Enterococcus faecalis [9] = assay: In vitro inhibitory activity against Enterococcus faecalis ATCC 29212; Value ranges from 8-32 ug/mL
[10] = Escherichia coli, ATCC 25922, read-out: MIC
[11] = Pseudomonas aeruginosa, read-out: MIC
[12] = Staphylococcus aureus, ATCC 29213, read-out: MIC
[13] = Pseudomonas aeruginosa, ATCC 27853, read-out: MIC
[14] = Pseudomonas aeruginosa, ATCC 35151, read-out: MIC
[15] = Enterococcus faecalis, ATCC 29212, read-out: MIC

Row | MIC (Escherichia coli [1]; [10]) | MIC (Pseudomonas aeruginosa [2]; [11]) | MIC (Staphylococcus aureus [3]; [12]) | MIC (Pseudomonas aeruginosa [4]; [13]) | MIC (Pseudomonas aeruginosa [5]; [14]) | MIC (Staphylococcus aureus [6]) | MIC (Enterococcus faecalis [7]; [15]) | MIC (Pseudomonas aeruginosa [2]) | MIC (Staphylococcus aureus [3]) | MIC (Pseudomonas aeruginosa [4]) | MIC (Pseudomonas aeruginosa [5]) | MIC (Enterococcus faecalis [7]) | MIC (Escherichia coli [1]) | SMILES | MIC (Escherichia coli [8]) | MIC (Enterococcus faecalis [9])
1 | > 64 µg/mL | > 64 µg/mL | > 64 µg/mL | > 64 µg/mL | > 64 µg/mL | > 64 µg/mL | > 64 µg/mL | – | – | – | – | – | – | NCC1OC(OC2C(N)CC(N)C(OC3OCC(O)C(O)C3O)C2O)C(N)CC1O (centres undefined) | – | –
2 | > 64 µg/mL | – | > 64 µg/mL | > 64 µg/mL | – | > 64 µg/mL | > 64 µg/mL | – | – | – | – | – | – | CC1OC(OC2C(N)CC(N)C(OC3OC(CN)C(O)CC3N)C2O)C(N)C(O)C1O (centres undefined) | – | –
3 | > 64 µg/mL | > 64 µg/mL | > 64 µg/mL | > 64 µg/mL | > 64 µg/mL | > 64 µg/mL | > 64 µg/mL | – | – | – | – | – | – | CC1OC(OC2C(N)CC(N)C(OC3OC(CN)C(O)CC3N)C2O)C(O)C(O)C1O (centres undefined) | – | –
4 | 32 µg/mL (≈ 68.6 µM) | 8 µg/mL (≈ 17.1 µM) | 8 µg/mL (≈ 17.1 µM) | 16 µg/mL (≈ 34.3 µM) | 16 µg/mL (≈ 34.3 µM) | > 64 µg/mL | > 64 µg/mL | – | – | – | – | – | – | NCC1OC(OC2C(N)CC(N)C(OC3OC(CN)C(O)C(O)C3N)C2O)C(N)CC1O (centres undefined) | – | –
5 | – | – | – | – | – | – | – | 2 µg/mL (≈ 4.29 µM) | 1 µg/mL (≈ 2.14 µM) | 2 µg/mL (≈ 4.29 µM) | 1 µg/mL (≈ 2.14 µM) | 64 µg/mL (≈ 137 µM) | – | NCC1OC(OC2C(N)CC(N)C(OC3OC(CO)C(N)C(N)C3O)C2O)C(N)CC1O (stereo in doubt; form 2) | – | –
6 | – | – | – | – | – | > 64 µg/mL | 32 µg/mL (≈ 68.6 µM) | 1 µg/mL (≈ 2.14 µM) | 1 µg/mL (≈ 2.14 µM) | 2 µg/mL (≈ 4.29 µM) | 1 µg/mL (≈ 2.14 µM) | – | 2 µg/mL (≈ 4.29 µM) | NCC1OC(OC2C(N)CC(N)C(OC3OC(CO)C(N)C(O)C3N)C2O)C(N)CC1O (stereo in doubt; form 2) | – | –
7 | – | – | – | – | – | > 64 µg/mL | > 64 µg/mL | – | 32 µg/mL (≈ 73.1 µM) | >64 µg/mL | – | – | >64 µg/mL | NCC1OC(OC2C(N)CC(N)C(OC3OCC(O)C(N)C3O)C2O)C(N)CC1O (stereo in doubt; 8v) | – | –
8 | – | – | – | – | – | > 64 µg/mL | > 64 µg/mL | >64 µg/mL | 32 µg/mL (≈ 68.6 µM) | >64 µg/mL | >64 µg/mL | – | – | NCC1OC(OC2C(N)CC(N)C(OC3OC(CO)C(N)C(N)C3O)C2O)C(N)CC1O (stereo in doubt; form 1) | – | –
9 | > 64 µg/mL | – | – | – | – | > 64 µg/mL | > 64 µg/mL | – | 64 µg/mL (≈ 137 µM) | >64 µg/mL | – | – | – | NCC1OC(OC2C(N)CC(N)C(OC3OC(CO)C(O)C(N)C3N)C2O)C(N)CC1O (stereo in doubt; form 2) | – | –
10 | – | 1 µg/mL (≈ 2.14 µM) | – | – | 1 µg/mL (≈ 2.14 µM) | – | – | – | 1 µg/mL (≈ 2.14 µM) | 2 µg/mL (≈ 4.29 µM) | – | 32 µg/mL (≈ 68.6 µM) | – | NCC1OC(OC2C(N)CC(N)C(OC3OC(CO)C(O)C(N)C3N)C2O)C(N)CC1O (stereo in doubt; form 1) | – | –
11 | 8 µg/mL (≈ 18.3 µM) | – | 16 µg/mL (≈ 36.6 µM) | 16 µg/mL (≈ 36.6 µM) | – | > 64 µg/mL | > 64 µg/mL | – | – | – | – | – | – | NCC1OC(OC2C(N)CC(N)C(OC3OCC(O)C(O)C3N)C2O)C(N)CC1O (centres undefined) | – | –
12 | 32 µg/mL (≈ 68.3 µM) | 8 µg/mL (≈ 17.1 µM) | 32 µg/mL (≈ 68.3 µM) | 16 µg/mL (≈ 34.2 µM) | 16 µg/mL (≈ 34.2 µM) | > 64 µg/mL | > 64 µg/mL | – | – | – | – | – | – | NC[C@@H]1O[C@H](O[C@H]2[C@H](O)[C@H](O[C@H]3O[C@@H](CO)[C@@H](O)[C@H](O)[C@@H]3O)[C@H](N)C[C@H]2N)[C@@H](N)C[C@@H]1O | – | –
13 | – | – | – | – | – | – | – | 16 µg/mL (≈ 34.3 µM) | 8 µg/mL (≈ 17.1 µM) | 32 µg/mL (≈ 68.6 µM) | 16 µg/mL (≈ 34.3 µM) | >64 µg/mL | 32 µg/mL (≈ 68.6 µM) | NCC1OC(OC2C(N)CC(N)C(OC3OC(CO)C(N)C(O)C3N)C2O)C(N)CC1O (stereo in doubt; form 1) | – | –
14 | – | – | – | – | – | – | – | – | 2 µg/mL (≈ 4.57 µM) | 2 µg/mL (≈ 4.57 µM) | – | – | 2 µg/mL (≈ 4.57 µM) | NCC1OC(OC2C(N)CC(N)C(OC3OCC(O)C(N)C3O)C2O)C(N)CC1O (stereo in doubt; 8u) | – | –
15 | 16 µg/mL (≈ 34.5 µM) | 64 µg/mL (≈ 138 µM) | 32 µg/mL (≈ 69 µM) | > 64 µg/mL | 32 µg/mL (≈ 69 µM) | > 64 µg/mL | > 64 µg/mL | – | – | – | – | – | – | CC1CC(N(C)C)C(O)C(OC2C(N)CC(N)C(OC3OC(CN)C(O)CC3N)C2O)O1 (centres undefined) | – | –

Row | SMILES | MIC (Escherichia coli [1]; [10]) | MIC (Pseudomonas aeruginosa [2]; [11]) | MIC (Staphylococcus aureus [3]; [12]) | MIC (Pseudomonas aeruginosa [4]; [13]) | MIC (Pseudomonas aeruginosa [5]; [14]) | MIC (Staphylococcus aureus [6]) | MIC (Enterococcus faecalis [7]; [15]) | MIC (Pseudomonas aeruginosa [2]) | MIC (Staphylococcus aureus [3]) | MIC (Pseudomonas aeruginosa [4]) | MIC (Pseudomonas aeruginosa [5]) | MIC (Enterococcus faecalis [7]) | MIC (Escherichia coli [1]) | MIC (Escherichia coli [8]) | MIC (Enterococcus faecalis [9])
16 | NC[C@H]1O[C@H](O[C@H]2[C@H](O)[C@@H](O[C@H]3O[C@H](CO)[C@@H](O)[C@H](N)[C@H]3O)[C@H](N)C[C@@H]2N)[C@H](N)C[C@@H]1O [TOBRAMYCIN] | – | 0.5 µg/mL (≈ 1.07 µM) | 0.5 µg/mL (≈ 1.07 µM) | 0.5 µg/mL (≈ 1.07 µM) | 0.5 µg/mL (≈ 1.07 µM) | > 64 µg/mL | – | – | – | – | – | – | – | > 1 µg/mL | > 32 µg/mL
